Measured values taken from patent publication US4551547A, “Biocidal 2-aryl-1, 3-cyclopentanedione enol ester compounds” (Union Carbide Corporation, priority 1983, dated 1985).
In brackets after ≈: the same amount, converted by molar mass.

Experiments:
[1] = test system: Mustard; experiment: Preliminary herbicide seed germination test (pre-emergent), mustard; format: in vivo, Brassica pincea var. foliosa (Florida broadleaf); set-up: key: 5: no seedling emerged; 4: few seedlings emerged and/or very severe stunting; 3: moderate reduction in stand and/or moderate stunting.; 2: very slight reduction in stand and/or slight stunting; 1: no injury, seedlings appear no different with respect to stand or growth than untreated controls; conditions: ten to twelve days after application
Description: (§1) Suspensions of the test compounds were prepared by dissolving one gram of compound in 50 milliliters of acetone in which had been dissolved 0.1 gram (10 percent of the weight of compound) of an alkylphenoxyethanol sufactant, as an emulsifying or dispersing agent. The resulting solution was mixed into 160 milliliters of water to give roughly 200 milliliters of a suspension containing the compound in finely divided form. The thus prepared stock suspension contained 0.5 percent by weight of compound. The test concentrations employed in the tests described below were obtained by diluting the stock suspension with water. The test procedures were as follows:
(§2) The following seeds were used in this test:
Mustard--Brassica pincea var. foliosa (Florida broadleaf)
(§3) Two […] mixtures were prepared as follows:
(§4) Each of the above mixtures was rolled separately in 5 gallon containers for approximately one-half hour on ball mill to insure uniform mixing of seeds and soil. For each compound four 3-inch pots were filled with soil to within 11/2 inches of top of pots. To two of these pots were added 70 cc. of Mixture I. To the remaining 2 pots were added 70 cc. of Mixture II. The seed-soil mixture was tamped firmly, and the pots were removed to the greenhouse and watered lightly. About 2 hours after planting, 25 milliliters of the test formulation were added to one pot containing Mixture I and one pot containing Mixture II. An equal volume of a water solution containing acetone and an emulsifier in the same concentration as the herbicidal mixture but without the candidate herbicide was also added to each of the soil-seed mixtures. These pots are used as check or control units. The test compounds were formulated by diluting the stock suspension with water to obtain the desired concentration of the compound in parts per million of the final formulation. Each compound was tested at the same concentration. […] Ratings were made according to the following designations: […]

[2] = test system: egg of the two-spotted mite; experiment: Mite Ovicide Test (eggs); format: in vivo, Tetranychus urticae (Koch); set-up: key to Miticidal, Egg: A: Excellent Control; B: Partial Control; No Control; conditions: for Miticidal, Egg: Table II, unhatched eggs after four days; for LC50: Tetranychus urticae, Table III, ppm required for a 50 percent kill of eggs, read-out: Miticidal LD50, Egg
Description: Suspensions of the test compounds were prepared by dissolving one gram of compound in 50 milliliters of acetone in which had been dissolved 0.1 gram (10 percent of the weight of compound) of an alkylphenoxyethanol sufactant, as an emulsifying or dispersing agent. The resulting solution was mixed into 160 milliliters of water to give roughly 200 milliliters of a suspension containing the compound in finely divided form. The thus prepared stock suspension contained 0.5 percent by weight of compound. The test concentrations employed in the tests described below were obtained by diluting the stock suspension with water. The test procedures were as follows: The test organism was the egg of the two-spotted mite (Tetranychus urticae (Koch)), as obtained from adults reared on […] bean plants under controlled conditions of 80±5° F. and 50±5 percent relative humidity. Heavily infested leaves from a stock culture were placed on the primary leaves of two bean plants six to eight inches in height growing in a two-and-a-half inch clay pot. Females were allowed to oviposit for a period of 48 hours and the leaves of the infested plants were dipped in a solution containing 800 parts of tetraethyl pyrophosphate per million parts of water in order to destroy the reproductory forms and thus prevent further egg laying. […] The plants were allowed to dry thoroughly. The test compounds were formulated by diluting the stock suspension with water to give a suspension containing varying amounts of test compound per million parts of final formulation. The potted plants (one pot per compound) were placed on a revolving turntable and sprayed with 100-110 milliliters of test compound formulation by use of a DeVilbis spray gun set at 40 spig. air pressure. This application which lasted 30 seconds, was sufficient to wet the plants to run-off. As a control, 100-110 milliliters of a water solution containing acetone and emulsifier in the same concentrations as the test compound formulation, but containing no test compound, were also sprayed on plants infested with eggs. The sprayed plants were held at 80±5° F. and 50±5 percent relative humidity for four days, after which a microscopic examination was made of unhatched (dead) and hatched (living) eggs. In these tests the pesticidal activity of the compounds against mites and mite eggs was rated as follows: Tests were conducted in accordance with the procedures given at pages 17 to 21 supra. The results are expressed in the same manner as used in Table II, except with respect to miticidal activity. For mite adult and mite egg comparison purposes, results are given in parts per million (ppm) required for a 50 percent kill of mites or eggs, respectively.

[3] = test system: Bean; experiment: Post-emergent herbicidal test, bean; format: in vivo; set-up: key: 1: no perceptible injury; 2: intermediate degrees of injury; 3: intermediate degrees of injury; 4: intermediate degrees of injury; 5: the plant was dead; conditions: 2500 parts per million, after ten days; for Post-emergent Herbicidal, Bean: Table II; for Post Emergent Herbicidal, Bean: Table III
Description: as §1
(§5) Experiments were also conducted to determine the phytotoxicity of representative compositions with respect to healthy fresh plants. Solutions of the compounds were prepared as described above to provide a concentration of 2500 parts per million of the test compound. The test plants were sprayed in accordance with the procedure described above for the Mite Foliage Spray Test so as to deliver approximately 100 milliliters of test solutions to the leaves of each plant tested. The sprayed plants and controls were set aside for approximately one hour to allow the solutions to dry and were then placed in the greenhouse. After ten days the plants were visually inspected to determine the extent of foliage injury. A rating of 1 indicates no perceptible injury; 5 indicates the plant was dead and ratings of 2, 3 and 4 indicate intermediate degrees of injury based upon the number and extent to which leaves were injured.

[4] = test system: Soybean; experiment: Post-emergent herbicidal test, soybean; format: in vivo; set-up: key: 1: no perceptible injury; 2: intermediate degrees of injury; 3: intermediate degrees of injury; 4: intermediate degrees of injury; 5: the plant was dead; conditions: 2500 parts per million, after ten days; for Post-emergent Herbicidal, Soybean: Table II; for Post Emergent Herbicidal, Soybean: Table III
Description: as §1, §5

[5] = test system: Crabgrass; experiment: Preliminary herbicide seed germination test (pre-emergent), crabgrass; format: in vivo, Digitaria sanguinalis; set-up: key: 5: no seedling emerged; 4: few seedlings emerged and/or very severe stunting; 3: moderate reduction in stand and/or moderate stunting.; 2: very slight reduction in stand and/or slight stunting; 1: no injury, seedlings appear no different with respect to stand or growth than untreated controls; conditions: ten to twelve days after application
Description: as §1, §2
Crabgrass--Digitaria sanguinalis
as §3, §4

[6] = test system: Tomato; experiment: Post-emergent herbicidal test, tomato; format: in vivo; set-up: key: 1: no perceptible injury; 2: intermediate degrees of injury; 3: intermediate degrees of injury; 4: intermediate degrees of injury; 5: the plant was dead; conditions: 2500 parts per million, after ten days; for Post-emergent Herbicidal, Tomato: Table II; for Post Emergent Herbicidal, Tomato: Table III
Description: as §1, §5

[7] = test system: Red root pigweed (Amaranthus); experiment: Preliminary herbicide seed germination test (pre-emergent), red root pigweed; format: in vivo, Amaranthus retroflexus; set-up: key: 5: no seedling emerged; 4: few seedlings emerged and/or very severe stunting; 3: moderate reduction in stand and/or moderate stunting.; 2: very slight reduction in stand and/or slight stunting; 1: no injury, seedlings appear no different with respect to stand or growth than untreated controls; conditions: ten to twelve days after application
Description: as §1, §2
Red root pigweed--Amaranthus retroflexus
as §3, §4

Row | SMILES | Pre-emergent Herbicidal, Mustard ([1]; Table II) | Miticidal, Egg [2] | Post-emergent Herbicidal, Bean [3] | Post-emergent Herbicidal, Soybean [4] | Pre-emergent Herbicidal, Crabgrass ([5]; Table II) | Post-emergent Herbicidal, Tomato [6] | Pre-emergent Herbicidal, Amaranthus ([7]; Table II) | Pre-emergent Herbicidal, Mustard ([1]; Table III) | LC50 [2] [µg/mL] | Post Emergent Herbicidal, Bean [3] | Post Emergent Herbicidal, Soybean [4] | Pre-emergent Herbicidal, Crabgrass ([5]; Table III) | Post Emergent Herbicidal, Tomato [6] | Pre-emergent Herbicidal, Amaranthus ([7]; Table III)
1 | CC(=O)OC1=C(c2cc(C)ccc2C)C(=O)C(C)C1 (stereo not drawn) [Compound 15] | 2 | B | 2 | 2 | 2 | 2 | 3 |  |  |  |  |  |  | 
2 | CCCCCCCCCC(=O)OC1=C(c2cc(C)ccc2C)C(=O)C2CCCCC12 (stereo not drawn) [drawing 19] |  |  |  |  |  |  |  | 1 | 8 (≈ 19.5 µM) | 1 | 1 | 1 | 1 | 1
3 | Cc1ccc(C)c(C2=C(OC(=O)C(C)C)CCC2=O)c1 [Compound 12] | 1 | B | 2 | 3 | 1 | 3 | 1 |  |  |  |  |  |  | 
4 | CC(=O)OC1=C(c2cc(C)ccc2C)C(=O)C2CCCCC12 (stereo not drawn) [Compound 28] | 1 | A | 2 | 2 | 2 | 1 | 1 |  |  |  |  |  |  | 
5 | Cc1ccccc1C1=C(OC(=O)C(C)(C)C)C2CCCCC2C1=O (stereo not drawn) [drawing 24] |  |  |  |  |  |  |  | 3 | 16 (≈ 49 µM) | 2 | 3 | 3 | 1 | 2
6 | CCCCCCCCCC(=O)OC1=C(c2ccccc2C)C(=O)C2CCCCC12 (stereo not drawn) [Compound 23] | 3 | A | 2 | 3 | 3 | 1 | 3 |  |  |  |  |  |  | 
7 | CCCCCCCCCCCCCCCC(=O)OC1=C(c2cc(C)ccc2C)C(=O)CC1 [Compound 14] | 1 | A | 2 | 3 | 1 | 3 | 1 |  |  |  |  |  |  | 
8 | CC(=O)OC1=C(c2ccc(C)cc2C)C(=O)C2CCCCC12 (stereo not drawn) [Compound 25] | 3 | A | 1 | 2 | 5 | 2 | 3 |  |  |  |  |  |  | 
9 | CCCCC(CC)C(=O)OC1=C(c2ccccc2C)C(=O)CC1 (stereo not drawn) [drawing 21] |  |  |  |  |  |  |  | 1 | 125 (≈ 398 µM) | 2 | 2 | 3 | 2 | 3
10 | CCCCCCCCCCCCCCCC(=O)OC1=C(c2ccc(Cl)cc2Cl)C(=O)CC1 [Compound 6] | 1 | B | 1 | 1 |  | 1 | 1 |  |  |  |  |  |  | 
11 | CC(C)C(=O)OC1=C(c2ccc(Cl)cc2Cl)C(=O)CC1 [Compound 4] | 1 | B | 2 | 2 |  | 2 | 1 |  |  |  |  |  |  | 
12 | CCCCC(CC)C(=O)OC1=C(c2ccc(Cl)cc2Cl)C(=O)CC1 (stereo not drawn) [Compound 5] | 1 | A | 3 | 2 |  | 2 | 1 |  |  |  |  |  |  | 
13 | CC(=O)OC1=C(c2ccc(Cl)cc2Cl)C(=O)CC1 [Compound 3] | 1 | A | 2 | 2 |  | 2 | 2 |  |  |  |  |  |  | 
